The record followed here is US20050282743A1, “Molecular interactions in cells” (Arbor Vita Corporation, priority 2001, published 2005).

The target in assay [1] is T1, PDZ protein (GST-PDZ fusion) (Homo sapiens, UniProt Q02410).
T1 construct: made in house; host or cells: E. coli (DH5alpha, BL21 or JM109)
T1 sequence (Q02410 1-837): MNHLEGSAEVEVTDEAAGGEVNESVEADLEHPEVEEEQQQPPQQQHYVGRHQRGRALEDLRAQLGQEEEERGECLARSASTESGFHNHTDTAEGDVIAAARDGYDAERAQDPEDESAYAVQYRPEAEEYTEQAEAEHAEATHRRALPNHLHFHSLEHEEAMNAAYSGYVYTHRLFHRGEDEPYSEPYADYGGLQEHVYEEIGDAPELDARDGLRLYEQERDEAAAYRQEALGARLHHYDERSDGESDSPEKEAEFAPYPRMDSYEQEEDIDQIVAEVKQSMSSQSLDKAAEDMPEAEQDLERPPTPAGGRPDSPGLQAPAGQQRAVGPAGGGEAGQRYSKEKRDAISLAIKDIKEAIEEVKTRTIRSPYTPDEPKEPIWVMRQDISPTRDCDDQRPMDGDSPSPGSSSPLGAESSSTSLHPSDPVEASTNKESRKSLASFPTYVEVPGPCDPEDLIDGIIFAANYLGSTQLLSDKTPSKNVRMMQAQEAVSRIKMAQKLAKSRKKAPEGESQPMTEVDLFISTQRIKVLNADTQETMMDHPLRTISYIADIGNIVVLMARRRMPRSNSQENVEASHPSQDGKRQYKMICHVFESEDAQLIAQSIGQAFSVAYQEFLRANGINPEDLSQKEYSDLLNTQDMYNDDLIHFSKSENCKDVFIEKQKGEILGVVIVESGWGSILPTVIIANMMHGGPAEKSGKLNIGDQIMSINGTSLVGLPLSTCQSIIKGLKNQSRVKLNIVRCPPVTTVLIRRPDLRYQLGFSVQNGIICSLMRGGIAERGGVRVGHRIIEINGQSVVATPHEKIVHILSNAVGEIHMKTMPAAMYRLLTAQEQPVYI
In words: G' assay (10 uM PL peptide), results of TABLE 7 and TABLE 12. To be noted: PDZ Mint 1, PDZ Domain 2. It counts as binding. The gist of the method:
(§1)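 Binding classes derive from A450 nm of bound biotin-tagged PL peptide. A score of 5 needs A450 above 4 in more than two repeats.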

Assay [2] deals with T2, PDZ protein (GST-PDZ fusion) (Homo sapiens, UniProt Q9Y2H9).
T2 construct: made in house; host or cells: E. coli (DH5alpha, BL21 or JM109)
The assay is described as above. It counts as binding. To be noted: PDZ KIAA0973, PDZ Domain 1. In short, it runs like this: as §1

For assay [3], the system named is PDZ protein (GST-PDZ fusion). Described as above. It counts as binding. The gist of the method: as §1
The next assay addresses T3, KIAA807 (Homo sapiens, UniProt Q6P0Q8).
T3 construct: made in house; host or cells: E. coli (DH5alpha, BL21 or JM109)
T3 sequence (Q6P0Q8 1104-1192 limits assumed): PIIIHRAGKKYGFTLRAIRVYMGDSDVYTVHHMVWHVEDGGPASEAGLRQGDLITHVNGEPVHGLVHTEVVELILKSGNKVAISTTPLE
Description: G' assay, TABLE 12. It is filed as binding. The note with it: A450 nm class of biotinylated PL peptide bound; 0 in conc columns = peptide 10 uM, protein 5 ug/ml. As for the experimental part:
(§2) The third column labeled “Peptide Optimal Concentration” in the tables is a number reflective of the binding interaction between the PL protein and PDZ protein. […] The column labeled “Protein Optimal Concentration” refers to the protein concentration used to assay PL interaction (in ug/ml); a ‘0’ is indicative of 5 ug/ml protein concentration; any other value represents the concentration (in ug/ml) used to determine the dissociation constant for a given interaction.
(§3) Finally, the seventh column labeled “Classification” is another measure of the level of binding. In particular, it provides an absorbance value at 450 nm which indicates the amount of PL peptide bound to the PDZ protein. The following numerical values have the following meanings: ‘1’—A450 nm 0-1; ‘2’—A450 nm 1-2; ‘3’—A450 nm 2-3; ‘4’—A450 nm 3-4; ‘5’—A450 nm of 4 more than 2× repeated; ‘0’—A450 nm 0, i.e., not found to interact. Thus, higher numbers indicate stronger interactions.
(§4) For convenience, the assay conditions described in this section are referred to as the “G′ assay” and the “G″ assay,” with the specific conditions described in the preceding section on G assays being referred to as the “G^0 assay.” The “G′ assay” is identical to the “G^0 assay” except at step (2) the peptide concentration is 10 uM instead of 20 uM. […] Correspondingly, it slightly increases the certainty that detected interactions are of sufficient affinity and half-life to be of biological importance and useful therapeutic targets.

The target of the next assay is T4, Mint 1 (PDZ Domain 1, 2) (Homo sapiens, UniProt Q02410).
T4 construct: When more than one PDZ domain was cloned, the DNA portion cloned represents the PDZ domains and the cDNA portion located between individual domains; made in house; host or cells: E. coli (DH5alpha, BL21 or JM109)
T4 sequence (Q02410 652-828 limits assumed): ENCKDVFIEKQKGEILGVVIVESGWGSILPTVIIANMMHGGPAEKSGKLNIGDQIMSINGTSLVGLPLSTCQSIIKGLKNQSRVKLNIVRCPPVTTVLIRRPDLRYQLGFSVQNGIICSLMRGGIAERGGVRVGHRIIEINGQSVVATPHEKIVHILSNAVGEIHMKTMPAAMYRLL
Description: G' assay, TABLE 12. It counts as binding. The note with it: A450 nm class of biotinylated PL peptide bound; 0 in conc columns = peptide 10 uM, protein 5 ug/ml. On the procedure:
as §2, §3, §4

Assay [4] concerns the target T5, KIAA0807(S) (PDZ Domain 1) (Homo sapiens, UniProt Q6P0Q8).
T5 construct: made in house; host or cells: E. coli (DH5alpha, BL21 or JM109)
T5 sequence (Q6P0Q8 with tags, fused parts or gaps): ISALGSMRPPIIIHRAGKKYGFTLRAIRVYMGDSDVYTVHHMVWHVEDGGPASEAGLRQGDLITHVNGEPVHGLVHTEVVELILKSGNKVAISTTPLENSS
Description: G' assay and Kd titration, TABLE 12. It counts as binding. To be noted: A450 nm class of biotinylated PL peptide bound; 0 in conc columns = peptide 10 uM, protein 5 ug/ml. On the procedure:
as §2, §3
For convenience, the assay conditions described in this section are referred to as the “G′ assay” and the “G″ assay,” with the specific conditions described in the preceding section on G assays being referred to as the “G^0 assay.” The “G′ assay” is identical to the “G^0 assay” except at step (2) the peptide concentration is 10 uM instead of 20 uM.

Assay [5] concerns PDZ-domain polypeptide (GST/PDZ fusion protein). In words: G assay (G0): biotinylated PL peptide 20 uM binding to immobilized GST/PDZ fusion protein. The note with it: G Assay of Example 3. On the procedure: “G Assay”—Detection of PDZ-Ligand Binding Using Immobilized PDZ-Domain Fusion Polypeptide
In other assays, a GST/PDZ fusion protein is immobilized on a surface (“G” assay). The binding of labeled PL peptide (e.g., as listed in TABLE 8) to this surface is then measured. Typically, the assay is carried out as follows:
(1) A PDZ-domain polypeptide is bound to a surface, e.g. a protein binding surface. In a preferred embodiment, a GST/PDZ fusion protein containing one or more PDZ domains is bound to a polystyrene 96-well plate. […] In some instances, the GST/PDZ fusion protein is bound via an anti-GST antibody that is coated onto the 96-well plate. Adequate binding to the plate can be achieved when: • a. […]
(3) The binding of the biotinylated peptide to the GST/PDZ fusion protein surface can be detected using a variety of methods and detectors known to one of skill in the art. […] The reaction of the HRP and its substrate is terminated by addition of 100 uL per well of 1M sulfuric acid, and the absorbance of each well of the plate is read at 450 nm.
(4) Specific binding of a PL peptide and a PDZ domain polypeptide is determined by comparing the signal from the well(s) in which the PL peptide and PDZ domain polypeptide are combined, with the background signal(s). […]

The target of assay [6] is T6, PDZ protein (GST-PDZ fusion) (Homo sapiens, UniProt O14907).
T6 construct: made in house; host or cells: E. coli (DH5alpha, BL21 or JM109)
T6 sequence (O14907 1-124): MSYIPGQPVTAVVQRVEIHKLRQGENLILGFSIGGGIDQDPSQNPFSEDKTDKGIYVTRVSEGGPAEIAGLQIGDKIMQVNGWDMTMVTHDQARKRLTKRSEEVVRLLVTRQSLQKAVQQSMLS
Description: G' assay (10 uM PL peptide), results of TABLE 7 and TABLE 12. It counts as binding. To be noted: PDZ TIP1, PDZ Domain 1. In short, it runs like this: as §1

Ends that are not written are not given here. * marks the point of attachment. Biotin = O=C1N[C@H]2[C@H](CS[C@H]2CCCCC(=O)*)N1

T2 sequence (Q9Y2H9 whole entry, the tested form may be a part): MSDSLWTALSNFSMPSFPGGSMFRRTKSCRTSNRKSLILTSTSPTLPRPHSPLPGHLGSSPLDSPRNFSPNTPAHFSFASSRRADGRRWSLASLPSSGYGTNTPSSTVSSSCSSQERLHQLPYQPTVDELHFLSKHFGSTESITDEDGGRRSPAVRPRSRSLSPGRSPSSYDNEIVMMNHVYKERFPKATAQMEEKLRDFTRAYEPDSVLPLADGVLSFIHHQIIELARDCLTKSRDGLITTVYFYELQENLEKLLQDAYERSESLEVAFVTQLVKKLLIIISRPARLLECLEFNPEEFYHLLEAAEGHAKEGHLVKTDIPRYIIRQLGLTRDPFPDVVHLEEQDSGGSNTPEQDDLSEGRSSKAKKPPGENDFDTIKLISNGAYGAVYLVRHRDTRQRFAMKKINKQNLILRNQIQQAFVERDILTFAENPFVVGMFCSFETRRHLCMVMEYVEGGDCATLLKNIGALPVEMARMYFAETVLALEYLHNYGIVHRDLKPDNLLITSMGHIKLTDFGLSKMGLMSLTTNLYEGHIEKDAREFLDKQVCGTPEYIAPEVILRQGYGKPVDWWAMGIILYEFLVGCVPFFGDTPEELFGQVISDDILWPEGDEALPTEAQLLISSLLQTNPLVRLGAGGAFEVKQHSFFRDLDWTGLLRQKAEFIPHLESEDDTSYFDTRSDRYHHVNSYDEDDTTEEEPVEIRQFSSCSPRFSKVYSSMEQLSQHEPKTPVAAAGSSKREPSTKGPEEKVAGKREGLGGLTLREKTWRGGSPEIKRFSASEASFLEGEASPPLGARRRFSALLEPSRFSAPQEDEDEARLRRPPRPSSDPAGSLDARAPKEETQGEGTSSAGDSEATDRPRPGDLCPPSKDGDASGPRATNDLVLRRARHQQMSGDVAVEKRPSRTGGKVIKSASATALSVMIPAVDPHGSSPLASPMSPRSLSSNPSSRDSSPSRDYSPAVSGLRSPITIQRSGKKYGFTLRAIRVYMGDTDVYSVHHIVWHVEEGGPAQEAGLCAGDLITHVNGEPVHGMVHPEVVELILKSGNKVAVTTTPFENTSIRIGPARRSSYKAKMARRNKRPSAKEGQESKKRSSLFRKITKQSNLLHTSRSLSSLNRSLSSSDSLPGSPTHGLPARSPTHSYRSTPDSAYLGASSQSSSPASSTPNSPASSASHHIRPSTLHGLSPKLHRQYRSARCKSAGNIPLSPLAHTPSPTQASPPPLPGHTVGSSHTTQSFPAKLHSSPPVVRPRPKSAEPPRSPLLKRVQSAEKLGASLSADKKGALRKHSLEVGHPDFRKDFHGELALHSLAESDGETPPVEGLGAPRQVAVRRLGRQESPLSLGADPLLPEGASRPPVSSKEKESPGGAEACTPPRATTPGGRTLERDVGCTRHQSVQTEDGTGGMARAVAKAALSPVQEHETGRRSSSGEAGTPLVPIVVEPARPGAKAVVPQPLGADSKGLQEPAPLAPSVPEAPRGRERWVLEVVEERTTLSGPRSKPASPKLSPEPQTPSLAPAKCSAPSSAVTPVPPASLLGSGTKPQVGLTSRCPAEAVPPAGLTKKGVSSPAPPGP

Take “KKGTYLTDETHREVKFTSL (Biotin-KKGTYLTDETHREVKFTSL) [CD46]”: the Classification in assay [1] is on record as 1 (A450 nm 0-1); in assay [2] it was 2 (A450 nm 1-2); in assay [3] (PDZ BAI-1, PDZ Domain 5) it was 1 (A450 nm 0-1); in the assay with KIAA807, 4 (A450 nm 3-4); with Mint 1 (PDZ Domain 1, 2), 1 (A450 nm 0-1); in assay [4], 5 (A450 nm of 4 more than 2× repeated). Moreover, in assay [3] (as cited in the text from TABLE 7), the “PDZ proteins bound by the PL (TABLE 7)” value was “KIAA0973, Mint 1, KIAA807, BAI-1, KIA0807(S)”.

Regarding “HAMNAAPRAMENAPALRTSH (Biotin-HAMNAAPRAMENAPALRTSH) [HPV E6 57]”, in assay [5], the “binding of E6 C-terminal peptides to a variety of PDZ domains” value is on record as “did not bind any of the PDZ domains tested”.

For GGGRGSGLAGGSRGGGQSRQ [HPV E6 77], in assay [5], the “binding of E6 C-terminal peptides to a variety of PDZ domains” value was “did not bind any of the PDZ domains tested”. Besides, the Classification is 0 (A450 nm 0, i.e., not found to interact) in assay [6] and 0 (A450 nm 0, i.e., not found to interact) in assay [3] (PDZ BAI-1, PDZ Domain 2).
